Assays:
[1] = Cell viability of non-tumor healthy fibroblasts HMF; conditions: human
Text: (§1) The activity of the association of rutin with synthetic chemotherapeutics (cyclophosphamide) and of the association of rutin with arctigenin, arctiin, berberine, berbamine, sanguinarine, chelerythrine (referred to with the term “extracts” in the tables), was studied on resistant cell lines of adenocarcinomas and carcinomas compared with chemosensitive tumor cell lines and with line cells.
(§2) In particular, chemoresistant human tumor cells MDA-MB-231 (breast adenocarcinoma), ECV-304 (bladder carcinoma), HuH-7 (hepatocellular carcinoma) and HTB-43 (squamous cell carcinoma of the pharynx), chemosensitive tumor cells MCF-7 (breast adenocarcinoma) and non-tumor healthy human mammal fibroblasts (HMF) have been used.

[2] = tested on: MDA-MB-231 (breast adenocarcinoma) cells; test: Cell viability of chemoresistant MDA-MB-231 cells; type: cell-based, human; conditions: alone or in association with cyclophosphamide
Text: as §1, §2

Row | Structure (SMILES) | viability at 850 ng/ml [1] | viability at 1000 ng/ml [1] | viability at 1300 ng/ml [1] | Synergic effect in association with cyclophosphamide [2]
1 | O=P1(N(CCCl)CCCl)NCCCO1 (stereo not shown) [Cyclophosphamide, cyclophosphamide] | 54% | 48% | 42% | –
2 | O=c1c(O)c(-c2ccc(O)c(O)c2)oc2cc(O)cc(O)c12 [Quercetin, quercetin] | – | – | – | absence of synergic effects
